Laboratory results as given in patent US20030040456A1, “Method and apparatus for cleaning article” (priority 2000, published 2003).

Experiments:
[1] = solubility of the organic solvents in castor oil at 30° C.; assay type: physicochemical
Description: In the present invention, the organic solvent having high compatibility with oil is an organic solvent having high compatibility with oil adhered to an article to be cleaned, preferably an organic solvent which can be mixed with castor oil (Japanese Pharmacopoeia Act) as a typical example of the oil and standard oil in any ratio at 30° C. Preferred examples of the organic solvent having high compatibility with such oil include paraffin-based hydrocarbons such as dodecane, undecane and tridecane, naphthene-based hydrocarbons and polar organic solvents. Out of these, polar organic solvents are preferred. The polar organic solvents are preferably organic solvents having a dielectric constant of 8 or more, preferably 10 or more, such as glycol ether-based compounds, pyrrolidone-based compounds and imidazolidinone-based compounds. As the glycol ether-based compounds may be used ethylene glycol-based compounds but preferred are propylene glycol alkyl ether-based compounds.
(§1) The organic solvents and surfactants used in examples and comparative examples are given below.

[2] = solubility of the organic solvents in water at 60° C.; assay type: physicochemical
Description: The organic solvent having high compatibility with oil is preferably a polar organic solvent as described above because excellent cleanability can be obtained. The polar organic solvent is particularly preferably an organic solvent having low compatibility with water, specifically solubility in water at 60° C. of 50 vol % or less, preferably 30 vol % or less. More specifically, the polar organic solvent is preferably selected from a propylene glycol alkyl ether-based compound represented by the following formula (I): [drawing 1]
Compatibility with water means ability of mixing with water in any ratio at 60° C.
as §1

Compound: CN1CCN(C)C1=O [DMI, 1,3-dimethyl-2-imidazolidinone]
- solubility in castor oil [1]: infinitely soluble
- solubility in water (in words) [2]: infinitely soluble

Compound: CCCOC(C)COC(C)CO (stereo not drawn) [DPP, dipropylene glycol monopropyl ether]
- solubility in castor oil [1]: infinitely soluble
- solubility in water [2]: 10 vol %

Compound: CN1CCCC1=O [NMP, N-methylpyrrolidone]
- solubility in castor oil [1]: infinitely soluble
- solubility in water (in words) [2]: infinitely soluble

Compound: CCCCOCC(C)O (stereo not drawn) [PB, propylene glycol monobutyl ether]
- solubility in castor oil [1]: infinitely soluble
- solubility in water [2]: 6 vol %

Compound: CCCCCCCCCCCCCC [TD, n-tetradecane]
- solubility in castor oil [1]: infinitely soluble
- solubility in water [2]: less than 1 vol %

Compound: dipropylene glycolmonomethyl ether [DPM]
- solubility in castor oil [1]: infinitely soluble
- solubility in water (in words) [2]: infinitely soluble
